From patent US9242996B2 (Novartis AG, priority 2013, dated 2016)

Legend:
ERK2 = ERK2 (Homo sapiens (Human), UniProt P28482); test: ERK2 Alphascreen; format: biochemical
activated ERK2 = activated ERK2 (Homo sapiens (Human), UniProt P28482); test: Activated ERK2 kinase assay, ERK2 New conditions (AlphaScreen, ERKtide phosphorylation); format: biochemical; conditions: 0.25 nM ERK2, 200 nM ERKtide peptide, 35 μM ATP, 30 min preincubation
How it was run: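 Read-out is AlphaScreen with anti-phospho-EGFR (Thr669) antibody after EDTA quench and overnight dark incubation. Reaction: 0.25 nM ERK2, 30 min compound preincubation, then 200 nM ERKtide plus 35 µM ATP for 2–3 h at ambient temperature, pH 7.5. IC50 by four-parameter fit.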

activated ERK2, sequence (P28482 whole entry): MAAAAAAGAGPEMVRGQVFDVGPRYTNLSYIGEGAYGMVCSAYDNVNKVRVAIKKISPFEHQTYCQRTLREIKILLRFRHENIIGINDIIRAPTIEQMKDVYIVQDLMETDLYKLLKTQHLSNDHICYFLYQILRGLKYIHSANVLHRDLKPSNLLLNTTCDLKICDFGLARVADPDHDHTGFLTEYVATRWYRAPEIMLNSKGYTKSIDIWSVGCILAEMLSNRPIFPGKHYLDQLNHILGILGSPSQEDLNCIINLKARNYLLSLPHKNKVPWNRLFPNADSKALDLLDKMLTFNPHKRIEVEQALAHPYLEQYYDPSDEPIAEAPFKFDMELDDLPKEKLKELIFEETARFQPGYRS
ERK2, sequence (P28482 whole entry, species assumed): as the sequence (P28482 whole entry) above

SMILES | IC50 (ERK2) | IC50 (activated ERK2)
Nc1ncc(C2CCOCC2)cc1-c1ccc(C(=O)N[C@H](CO)c2ccccc2)cc1Cl [Example 68, (S)-4-(2-amino-5-(tetrahydro-2H-pyran-4-yl)pyridin-3-yl)-3-chloro-N-(2-hydroxy-1-phenylethyl)benzamide] | 0.214 µM | 0.314 µM
Nc1ncc(C2CCOCC2)cc1-c1ccc(C(=O)NCc2cnccn2)c(F)c1 [Example 75, 4-(2-amino-5-(tetrahydro-2H-pyran-4-yl)pyridin-3-yl)-2-fluoro-N-(pyrazin-2-ylmethyl)benzamide] | 1.16 µM | 1.22 µM
Cc1cnccc1-c1cnc(N)c(-c2ccc(C(=O)N[C@H](CO)c3ccccc3)c(F)c2)c1 [Example 83, (S)-4-(6-amino-3′-methyl-3,4′-bipyridin-5-yl)-2-fluoro-N-(2-hydroxy-1-phenylethyl)benzamide] | 0.000574 µM | 0.000752 µM
C[C@@H]1CN(c2cnc(N)c(-c3ccc(C(=O)N[C@H](CO)c4ccccc4)cc3)c2)C[C@H](C)O1 [Example 97, 4-(2-amino-5-((2S,6R)-2,6-dimethylmorpholino)pyridin-3-yl)-N-((S)-2-hydroxy-1-phenylethyl)benzamide] | 0.11 µM | 0.233 µM
Nc1ncc(C2CCOCC2)nc1-c1ccc(C(=O)NCc2ccccc2)c(F)c1 [Example 324, 4-(3-amino-6-(tetrahydro-2H-pyran-4-yl)pyrazin-2-yl)-N-benzyl-2-fluorobenzamide] | 0.00617 µM | 0.00683 µM
Nc1ncc(C2CCOCC2)nc1-c1ccc(C(=O)NC[C@@H](O)c2ccccc2)c(F)c1 [Example 333, (S)-4-(3-amino-6-(tetrahydro-2H-pyran-4-yl)pyrazin-2-yl)-2-fluoro-N-(2-hydroxy-2-phenylethyl) benzamide] | 0.0338 µM | 0.0346 µM
Cc1cccc(CNC(=O)c2ccc(-c3nc(C4CCOCC4)cnc3N)cc2F)n1 [Example 334, 4-(3-amino-6-(tetrahydro-2H-pyran-4-yl)pyrazin-2-yl)-2-fluoro-N-((6-methylpyridin-2-yl)methyl) benzamide] | 0.0194 µM | 0.0252 µM
